Publication PMC8899474, “Discovery and Characterization of the Key Constituents in Ginkgo biloba Leaf Extract With Potent Inhibitory Effects on Human UDP-Glucuronosyltransferase 1A1” (Frontiers in Pharmacology, 2022)

Tests used:
hUGT1A1 [1] = target: T1, hUGT1A1 (Homo sapiens, UniProt P22309); experiment: UGT1A1 inhibition assay and inhibition kinetics in human liver microsomes (NHPN-O-glucuronidation); assay type: biochemical; conditions: NHPN-O-glucuronidation in HLM
T1 sequence (P22309 26-533): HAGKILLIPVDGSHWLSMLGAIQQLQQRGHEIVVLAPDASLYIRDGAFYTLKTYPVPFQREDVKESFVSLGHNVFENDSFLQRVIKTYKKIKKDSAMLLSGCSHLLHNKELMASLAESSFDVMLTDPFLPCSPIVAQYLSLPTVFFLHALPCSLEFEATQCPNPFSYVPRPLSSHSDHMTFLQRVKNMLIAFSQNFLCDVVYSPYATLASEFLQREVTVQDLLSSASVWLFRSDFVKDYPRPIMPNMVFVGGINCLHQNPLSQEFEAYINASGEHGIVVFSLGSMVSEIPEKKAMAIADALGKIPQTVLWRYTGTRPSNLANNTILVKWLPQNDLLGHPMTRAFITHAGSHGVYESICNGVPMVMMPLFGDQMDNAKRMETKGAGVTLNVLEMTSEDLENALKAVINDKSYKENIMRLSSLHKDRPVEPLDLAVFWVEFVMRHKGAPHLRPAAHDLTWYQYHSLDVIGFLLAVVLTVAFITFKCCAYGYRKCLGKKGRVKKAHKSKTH

hUGT1A1 [2] = target: T1, hUGT1A1; experiment: UGT1A1 inhibition assay in living HeLa-UGT1A1 cells (NHPN-O-glucuronidation, LC-FD); assay type: cell-based; set-up: expressed in transfected cells; host or cells: HeLa cells, stably transduced with lentivirus (HeLa-UGT1A1); conditions: for inhibition of intracellular hUGT1A1: high concentration (100 μM), HeLa-UGT1A1 cells
Description: A RF-20A FD detector coupled UFLC system (Shimadzu, Kyoto, Japan), equipped with a DGU-20A5R vacuum degasser, two LC-20ADXR pumps, a SIL-20ACXR autosampler and a CTO-20A column oven, was used to quantify NHPN and NHPNG. Chromatographic separation of analytes was carried out on a shim-pack Acchrom HC-C18 analytical column (2.0 × 150 mm, 4.6 μm particle size), while the column temperature was kept at 40°C. The flow rate was kept at 0.5 ml/min. The mobile phase consisted of acetonitrile (A) and water containing 0.2% formic acid (B). The gradient of the mobile phase was as follows: 0–0.5 min, 80–60% B; 0.5–3.5 min, 60–5% B; 3.5–5 min, 5% B; 5–7.5 min, equilibration with 80% B. The excitation wavelength and the emission wavelength were set at 370 and 520 nm, respectively for detection.
The inhibitory effects of herbal products and chemical constituents of GBL extract on UGT1A1 were investigated in living HeLa-UGT1A1 cells by using a specific fluorescent substrate, NHPN, as a probe. HeLa-UGT1A1 cells were cultured at 37°C in 5% CO2 in Modified Eagle’s Medium (MEM) containing 0.1% antibiotic-antimycoticmix, supplemented with 10% fetal bovine serum (FBS). HeLa-UGT1A1 cells were seeded in 96-well plates and cultured for 24 h. The cells were incubated in the medium containing different kinds of herbal products (final concentration, 10 μg/ml) or chemical constituents of GBL extract (diluted to different concentration by DMSO with the final concentration of 1% DMSO in each incubation) for 60 min at 37°C under 5% CO2, and co-incubated with NHPN (final concentration, 50 μM) for another 60 min. […] The validation data for this cell-based flourescence assay can be found in our previous publication ([Zhu et al., 2020]).

hUGT1A1 [3] = target: T1, hUGT1A1; experiment: UGT1A1 inhibition assay and inhibition kinetics in human liver microsomes (NHPN-O-glucuronidation); assay type: biochemical; conditions: NHPN-O-glucuronidation in HLM; for Ki: second plot of Lineweaver-Burk slopes
Description: A set of incubations by changing both the fluorescent substrate concentration and the inhibitor concentration were performed to determine the inhibition kinetic modes and the corresponding inhibition constant (K i ) values. The incubation and analytical sample preparation were conducted as described previously. Goodness-of-fit parameter and Akaike’s Information Criterion (AIC) were employed to select the most appropriate inhibition kinetic modes from the following three inhibition modes including competitive inhibition Eq. 1, noncompetitive inhibition Eq. 2, or mixed inhibition Eq. 3, V=Vmax×[S]/Km×(1+[I]/Ki)+[S] (1) V=Vmax×[S]/(Km+[S])×(1+[I]/Ki) (2) V=Vmax×[S]/Km×(1+[I]/Ki)+[S]×(1+[I]/αKi) (3)
Here, V is the turnover of the glucuronidation reaction; V max is the maximum velocity; S and I are the substrate and inhibitor concentrations, respectively; K m is the Michaelis constant (substrate concentration at 0.5 V max ); K i is the inhibition constant that describes the affinity of the inhibitor towards hUGT1A1. The corresponding K i value of each tested inhibitor is calculated by utilizing the slopes of second plot from Lineweaver-Burk plot versus inhibitor concentrations.

hUGT1A1 [4] = target: T1, hUGT1A1; experiment: UGT1A1 inhibition assay with recombinant UGT1A1 (NHPN-O-glucuronidation)
Description: NHPN was used for evaluating the inhibitory effects of GBL extract on HLM. A typical incubation mixture with a total volume of 200 μl consisted of 50 mM Tris-HCl (pH = 7.4), 5 mM MgCl2, 2 mM UDPGA, NHPN (diluted by DMSO, 5 μM) and the enzymes. […] The final concentration of DMSO in the incubation mixture was less than 1%. […] A concentration of 5 μg/ml was used when recombinant UGT1A1 was the enzyme source. After pre-incubation for 3 min at 37°C, UDPGA was added to the incubation mixture to initiate the reaction. After 60 min incubation at 37°C, the reaction was terminated by adding 200 μl ice-cold acetonitrile, and the incubation mixture was kept on ice. After centrifugation at 20,000×g for 20 min at 4°C, 5 μl aliquots of the supernatant was taken for LC-FD analysis.
The residual activity of hUGT1A1 was determined as follows: Residual activity (%) = (the fluorescence intensity of NHPNG generated in the incubations with inhibitor)/(the fluorescence intensity of NHPNG generated in the incubations without inhibitor) × 100%. A set of incubations with the same fluorescent substrate concentration and different inhibitor concentrations were performed to determine the half maximal inhibition concentration (IC50).

[5] = hUGT1A1-catalyzed NHPN-O-glucuronidation in HeLa-UGT1A1 cells, read-out: IC50

Compound	IC50 (hUGT1A1 [1])	IC50 (hUGT1A1 [2]; [5])	also measured
O=c1cc(-c2ccc(O)c(-c3c(O)cc(O)c4c(=O)cc(-c5ccc(O)cc5)oc34)c2)oc2cc(O)cc(O)c12 [Amentoflavone]	410 ± 34 nM	3290 ± 470 nM	–
O=c1cc(-c2ccc(O)cc2)oc2cc(O)cc(O)c12 [Apigenin]	–	1890 ± 240 nM	–
CC(C)(C)[C@]1(O)CC2OC(=O)CC23C(=O)OC2OC(=O)[C@H](O)C231 (stereo partly shown) [Bilobalide]	–	–	IC50 (hUGT1A1 [2]): > 100000 nM; inhibition of intracellular hUGT1A1 (hUGT1A1 [2]): did not inhibit
COc1ccc(-c2cc(=O)c3c(O)cc(O)cc3o2)cc1-c1c(O)cc(O)c2c(=O)cc(-c3ccc(O)cc3)oc12 [Bilobetin]	200 ± 23 nM	410 ± 48 nM	Inhibition mode (hUGT1A1 [3]): Mixed; Ki (hUGT1A1 [3]): 180 nM; IC50 (hUGT1A1 [4]): 100 to 290 nM
COc1cc(O)c2c(=O)cc(-c3ccc(O)cc3)oc2c1 [Genkwanin]	–	1500 ± 460 nM	–
COc1cc(O)c2c(=O)cc(-c3ccc(OC)c(-c4c(O)cc(O)c5c(=O)cc(-c6ccc(O)cc6)oc45)c3)oc2c1 [Ginkgetin]	150 ± 14 nM	75 ± 9 nM	Inhibition mode (hUGT1A1 [3]): Mixed; Ki (hUGT1A1 [3]): 70 nM; IC50 (hUGT1A1 [4]): 100 to 290 nM
C[C@@H]1C(=O)O[C@H]2C[C@@]34[C@H]5C[C@@H](C(C)(C)C)[C@]36[C@@H](OC(=O)[C@@H]6O)O[C@@]4(C(=O)O5)[C@]21O [Ginkgolide A]	–	> 100000 nM	inhibition of intracellular hUGT1A1 (hUGT1A1 [2]): did not inhibit
COc1ccc(-c2cc(=O)c3c(O)cc(O)c(-c4cc(-c5cc(=O)c6c(O)cc(O)cc6o5)ccc4OC)c3o2)cc1 [Isoginkgetin]	670 ± 85 nM	160 ± 20 nM	Inhibition mode (hUGT1A1 [3]): Mixed; Ki (hUGT1A1 [3]): 740 nM; IC50 (hUGT1A1 [4]): 100 to 290 nM
O=c1c(O)c(-c2ccc(O)cc2)oc2cc(O)cc(O)c12 [Kaempferol]	–	1380 ± 190 nM	–
COc1cc(-c2oc3cc(O)cc(O)c3c(=O)c2O)ccc1O [Lsorhamnetin, isorhamnetin]	–	1680 ± 340 nM	–
O=c1cc(-c2ccc(O)c(O)c2)oc2cc(O)cc(O)c12 [Luteolin]	–	1410 ± 170 nM	–
O=c1c(O)c(-c2cc(O)c(O)c(O)c2)oc2cc(O)cc(O)c12 [Myricetin]	–	64600 ± 12200 nM	–
O=c1c(O)c(-c2ccc(O)c(O)c2)oc2cc(O)cc(O)c12 [Quercetin]	–	2050 ± 240 nM	–
COc1ccc(-c2cc(=O)c3c(O)cc(O)c(-c4cc(-c5cc(=O)c6c(O)cc(OC)cc6o5)ccc4OC)c3o2)cc1 [Sciadopitysin]	280 ± 36 nM	110 ± 9 nM	Inhibition mode (hUGT1A1 [3]): Mixed; Ki (hUGT1A1 [3]): 670 nM
Ginkgolide B	–	–	inhibition of intracellular hUGT1A1 (hUGT1A1 [2]): did not inhibit
Ginkgolide C	–	–	inhibition of intracellular hUGT1A1 (hUGT1A1 [2]): did not inhibit
